Reference: patent publication US20190262431A1, “CBL-FAMILY INHIBITOR COMPRISING A CBL-FAMILY TKB DOMAIN BINDING PEPTIDE FOR THE PREVENTION OR TREATMENT OF DISEASES” (IMBA - INSTITUT FÜR MOLEKULARE BIOTECHNOLOGIE GMBH, priority 2016, published 2019)
Non-standard residues stand in square brackets, D forms with d. Residues, ends and D or L forms follow the SMILES beside them. No end group written: not given here. *: point of attachment. pY = N[C@@H](Cc1ccc(OP(=O)(O)O)cc1)C(=O)O; Cbz = O=C(OCc1ccccc1)*

Experiments:
[1] = test system: BM-DC; experiment: Killing assay (fungicidal activity against Candida albicans); format: cell-based, mouse; conditions: for BM-DC mediated Candida albicans killing in the presence of inhibitor: inhibitor added 30 min prior to stimulation
Protocol: To assess the fungicidal activity, the indicated immune cells were plated in replicates at a density of 1×10^5 cells/well in 96-well plates. Cells were incubated with Candida albicans at a multiplicity of infection of 1:500 for 24 h. After incubation, phagocytes were fixed by the addition of paraformaldehyde at a final concentration of 4%. Subsequently, Candida albicans were stained with Crystal Violet (Sigma) and killing was assessed by a comparison of colony numbers in wells with or without phagocytes.
(§1) BM-M and BM-DC were stimulated with C. albicans (strain SC5314), Zymosan (Invivogen), Curdlan (Invivogen), TDM (Invivogen), CpG (Invivogen), LPS (Invivogen), or C. albicans hyphae. For inhibition experiments cells were treated with the Syk inhibitor R406 (Selleckchem), anti-Dectin-1 antibody (Invivogen), MG132 (Calbiochem), or Dynasore (Sigma-Aldrich), 30 min prior to stimulation (MOI: Immune cell: C. albicans=1:2). Fungal isolates of Candida krusei, Candida glabrata, and Candida dubliniensis were kindly provided by the Allgemeines Krankenhaus Vienna (AKH). Fungal isoates were tested by PCR to verify the respective species.

[2] = test system: B16-SIY melanoma cells; experiment: B16-SIY in vivo tumor model; parameters: species or system mouse; conditions: C57Bl/6 mice; 100 μg i.p. every other day
Protocol: B16-SIY tumor cells as described in (Spranger, 2014) were cultured in DMEM cell culture media (Gibco) supplemented with 10% fetal bovine serum (Sigma), L-Glutamine (Thermo Fisher), Penicillin and Streptomycin (Thermo Fisher). 10^6 tumor cells were transplanted intradermally into C57Bl/6 mice. Mice were injected intraperitoneally with 100 μg of the indicated peptides or vehicle control every other day starting 24 h after tumor cell inoculation. Bodyweight and tumor volume were measured at the indicated time points, subsequently.

[3] = test system: phosphorylated Syk; experiment: Western blotting of Syk in Candida albicans stimulated BM-DC with MG132; format: cell-based, mouse; conditions: MG132 10 μM
Protocol: as §1
Western blotting was performed according to standard protocols. Blots were blocked for 1 hour with 5% bovine serum albumin in 1×TBS/0.1% Tween-20, or 4% BSA in 1×TBS/0.1% Tween-20 for phosphorylated epitopes, followed by overnight incubation at 4° C. with primary antibodies. Subsequently, blots were washed three times in 1×TBS/0.1% Tween-20 for 15 min, followed by incubation with HRP-conjugated secondary antibodies (1:2500; GE Healthcare # NA9340V) for 45 min at room temperature, washed three times in 1×TBS/0.1% Tween-20 for 15 min and visualized using enhanced chemiluminescence (ECL Plus, Pierce). […] Precipitates were analyzed by Western blotting using the indicated antibodies. […] Precipitates were analyzed by Western blotting with the indicated antibodies.

[4] = test system: BM-DC; experiment: Cytokine secretion by Candida albicans stimulated BM-DC (ELISA); format: cell-based, mouse; conditions: 18 h
Protocol: Cytokine secretion by cell culture supernatants or in the peritoneal lavage was assessed with ELISA kits purchased from eBioscience (IL-1β, TNF, IL-6, IL-12, IL-23) or R&D Systems (IL-1Ra) according to the manufacturer's instructions. Production of reactive oxygen species (ROS) was measured with as assay using luminol as the probe in real-time over 90 min as described previously (Bourgeois et al., 2009). Caspase-8 activity was assessed using the CaspGLOW assay (Promega) according to the manufacturer's instructions.
as §1

[5] = test system: Candida albicans; experiment: Systemic (intravenous) Candida albicans infection of mice; format: in vivo, mouse; conditions: control peptides versus untreated control cohort
Protocol: 8-10 week old mice were infected with 10^5 colony forming units (CFU) of C. albicans (strain SC5314), 10^5 colony forming units (CFU) of C. dubliniensis, or 10^5 CFUs of Listeria monocytogenes (strain EGD) intravenously. C. albicans CFUs were assessed from various organs as described (Wirnsberger et al., 2014). For clodronate or PBS liposome treatment experiments, mice were injected intraperitoneally with 100 ul/10 g mouse weight of liposomes both 24 h before and 24 h after intravenous C. albicans infections. Clodronate or PBS control liposomes were obtained from clodronateliposomes.org, and handled according to the manufacturer's instructions.

[6] = test system: BM-DC; experiment: ROS production by BM-DC co-cultured with Candida albicans (luminol assay); format: cell-based, mouse; conditions: Cbl-b+/+ BM-DC; 100 μM peptide; versus no peptide
Excerpt: BM-DC or BM-M were obtained by differentiation from bone marrow precursor cells.

[7] = test system: human CD4+ T cells; experiment: Human T cell assays (CFSE proliferation, IFN-γ ELISA, CD69), CD4+ T cells; format: cell-based
Protocol: (§2) Peripheral blood mononuclear cells (PBMC) were purified from human blood using a Lymphoprep™ PBMC isolation kit (Stemcell Technologies), according to the manufacturer's instructions. Human CD4+ or CD8+ T cells were purified from PBMC using CD4 or CD8 MicroBeads (Miltenyi Biotec), respectively, and MACS technology (Miltenyi Biotec). For proliferation assays, flat-bottom 96-well plates were coated with CD3 (OKT3, 0.1 μg/ml) and CD28 (CD28.2, 0.1 μg/ml) antibodies in PBS at 37 degrees C. for 2 h. To monitor proliferative expansion, assays were carried out with carboxyfluorescein succinimidyl ester (CFSE; eBioscience) labeled T cells. T cells were cultured in X-VIVO 15 chemically defined, serum free hematopoietic cell medium (Lonza), with the indicated concentrations of peptide or vehicle control. After 72 h […], cells were labeled with antibodies against CD4 (RPA-T4, Brilliant Violet 510 labeled, Biolegend) or CD8 (RPA-T8, APC-eFluor 780 labeled, eBioscience), and CD69 (FN50, PE/Cy7 labeled, Biolegend), and analyzed on a Beckman Coulter Gallios flow cytometer. Data were analyzed using Beckman Coulter Kaluza software. IFN-γ secretion into cell culture supernatants of the proliferation assays was determined by enzyme-linked immunosorbent assays (ELISA) according to the manufacturer's (BD Biosciences) instructions.

[8] = test system: human CD8+ T cells; experiment: Human T cell assays (CFSE proliferation), CD8+ T cells; format: cell-based; conditions: plate bound CD3/CD28 antibodies; 3 days; CFSE dilution
Protocol: as §2

[9] = test system: murine CD4+ T cells; experiment: Murine T cell proliferation assay; format: cell-based, mouse; conditions: for proliferative response of cblb Δ/Δ CD4+ T cells: CD3 or CD3 plus CD28 antibodies, versus untreated cells; for proliferative response of cblb Δ/Δ CD4+ T cells / proliferative response of cblb+/+ CD4+ T cells: 3 days; for proliferative response of cblb+/+ CD4+ T cells: plate bound CD3 or CD3 plus soluble CD28 antibodies, versus no peptide
Protocol: Murine CD4+ T cells were purified from pooled spleens and lymph nodes using MACS technology (Miltenyi Biotec). […] Purified T cells were labeled with the cell proliferation dye eFluor 670 (eBioscience) and cultured in IMDM cell culture medium (Gibco), supplemented with 10% fetal bovine serum (Sigma), L-Glutamine (Thermo Fisher), Penicillin and Streptomycin (Thermo Fisher), in the presence of 5 ng/ml of recombinant IL-2 (Biolegend) and the indicated concentrations of peptide. After 3 days, cells were stained with the fixable viability dye eFluor 780 (Thermo Fisher), and stained with a CD4 antibody (RM4-5, Brilliant Violet 711, Biolegend). Cells were analyzed with a BD LSR Fortessa II flow cytometer (Becton Dickinson), subsequently, and data were analyzed using the FlowJo v10.0.8 software (Tree Star).

Question: For `O=C(N/N=C/c1ccc(O)c(O)c1)c1cc2ccccc2cc1O` [Dynasore], which “BM-DC mediated Candida albicans killing in the presence of inhibitor” value [1] is on record?
Answer: The value was “abrogated”.

Question: With `CC[C@H](C)[C@H](NC(=O)[C@H](CCCCN)NC(=O)[C@@H](NC(=O)[C@H](CCC(N)=O)NC(=O)[C@H](CCCNC(=N)N)NC(=O)[C@@H](N)CC(=O)O)[C@@H](C)CC)C(=O)N[C@@H](Cc1c[nH]c2ccccc12)C(=O)N[C@@H](Cc1ccccc1)C(=O)N[C@@H](CCC(N)=O)C(=O)N[C@@H](CC(N)=O)C(=O)N[C@@H](CCCNC(=N)N)C(=O)N[C@@H](CCCNC(=N)N)C(=O)N[C@@H](CCSC)C(=O)N[C@@H](CCCCN)C(=O)N[C@@H](Cc1c[nH]c2ccccc12)C(=O)N[C@@H](CCCCN)C(=O)N[C@@H](CCCCN)C(=O)N[C@@H](CO)C(=O)N[C@H](C(=O)N1CCC[C@H]1C(=O)N[C@@H](CC(N)=O)C(=O)N[C@@H](Cc1ccccc1)C(=O)NCC(=O)N[C@H](C(=O)N[C@@H](Cc1ccc(OP(=O)(O)O)cc1)C(=O)NCC(=O)N[C@H](C(=O)N[C@@H](CO)C(=O)N1CCC[C@H]1C(=O)N[C@@H](Cc1c[nH]c2ccccc12)C(=O)NCC(=O)N1CCC[C@H]1C(=O)N[C@@H](CCC(=O)O)C(=O)O)[C@@H](C)O)C(C)C)[C@@H](C)O` [M2] as the compound, how does the bodyweight gain [2] read?
Answer: Its bodyweight gain is “did not affect”.

Question: `CC(C)C[C@@H](C=O)NC(=O)[C@H](CC(C)C)NC(=O)[C@H](CC(C)C)NC(=O)OCc1ccccc1` [MG132] (Cbz-Leu-Leu-Leu-aldehyde) was tested. Which “levels of phosphorylated Syk” value ([3]; Cbl-b Δ/Δ BM-DC stimulated with Candida albicans) did it give?
Answer: The value was “did not change”.

Question: What about the “phosphorylated Syk in lysates” value ([3]; Cbl-b+/+ BM-DC stimulated with Candida albicans) of the same compound?
Answer: The value was “increase”.

Question: Which “IL-1β secretion by Candida albicans stimulated BM-DC” value ([4]; BM-DC of all three genotypes) does the source give for `COc1cc(Nc2ncc(F)c(Nc3ccc4c(n3)NC(=O)C(C)(C)O4)n2)cc(OC)c1OC` [R406] here?
Answer: The value was “almost completely abrogated”.

Question: What about the “release of IL-6 by Candida albicans stimulated BM-DC” value ([4]; all three genotypes) of the same compound?
Answer: The value was “almost completely abrogated”.

Question: And the “release of TNF by Candida albicans stimulated BM-DC” value ([4]; all three genotypes)?
Answer: The value was “almost completely abrogated”.

Question: And the “BM-DC mediated Candida albicans killing in the presence of inhibitor” value [1]?
Answer: Its value is “almost completely abrogated”.

Question: “DRQIKIWFQNRRMKWKK [Antennapedia peptide, cell penetrating peptide derived from the Drosophila Antennapedia homeodomain, used alone as control]” was tested. Which morbidity or mortality [5] did it give?
Answer: The morbidity or mortality was “did not affect”.

Question: And the “ROS production by BM-DC in response to Candida albicans stimulation” value [6]?
Answer: The value was “did not affect”.

Question: What about the “fungicidal activity (killing capacity) of BM-DC upon Candida albicans infection” value ([1]; 24 h co-culture, 100 μM peptide) of the same compound?
Answer: The value was “did not affect”.

Question: For “DRQIKIWFQNRRMKWKKEAVPLYAWYPNPSTFES (DRQIKIWFQNRRMKWKKEAVPLYAW[pY]PNPSTFES; listed as Homo sapiens) [H2]”, which “effects on proliferation, IFN-γ and CD69 of human T cells” value ([7]; scrambled control, compared with H1) is on record?
Answer: The value was “Slight effects”.

Question: How did the “proliferative response of human CD8+ T cells” value [8] turn out when “DRQIKIWFQNRRMKWKKSTVSFNPYEPELAPWA (DRQIKIWFQNRRMKWKKSTVSFNP[pY]EPELAPWA; listed as Homo sapiens) [H1]” was run?
Answer: Its value is “dose dependent significant increase”.

Question: And the “activation marker CD69 on T cells” value ([7]; percentage of CD69+ of total CD4+ cells, versus untreated cells)?
Answer: Its value is “dose dependent upregulation”.

Question: What about the “proliferative response of human CD4+ T cells” value ([7]; plate bound CD3/CD28 antibodies, 3 days, CFSE dilution) of the same compound?
Answer: Its value is “dose dependent significant increase”.

Question: What about the “production of IFN-γ by CD4+ T cells” value ([7]; supernatants of proliferation assay, ELISA) of the same compound?
Answer: The value was “increased significantly”.

Question: What does the source list for “KIKKTKKKGRKKIKKTKKKGRKSTPNFGVYGTSPWGPE (KIKKTKKKGRKKIKKTKKKGRKSTPNFGV[pY]GTSPWGPE; listed as Mus musculus) [M4]”?
Answer: proliferative response of cblb Δ/Δ CD4+ T cells [9]: only mildly increased; proliferative response of cblb+/+ CD4+ T cells [9]: only mildly increased

Question: “KIKKTKKKGRKKIKKTKKKGRKSTVSFNPYEPTGGPWG (KIKKTKKKGRKKIKKTKKKGRKSTVSFNP[pY]EPTGGPWG; listed as Mus musculus) [M3]” was tested. Which “proliferative response of cblb Δ/Δ CD4+ T cells” value [9] did it give?
Answer: The value was “marked increase”.

Question: What about the “effect on proliferation under suboptimal stimulatory conditions” value ([9]; low concentrations of CD3, with or without CD28 co-stimulation) of the same compound?
Answer: The value was “more pronounced effects”.

Question: What about the “proliferative response of cblb+/+ CD4+ T cells” value [9] of the same compound?
Answer: The value was “dose dependent increase”.
